Data on four compounds can be found in US9518038B2, “Condensation product of theanine derivative and carboxylic acid coumarin derivative, its intermediate, preparation method and use thereof” (SHANDONG YINGDONG YINGHAO BIOTECHNOLOGY, INC., priority 2012, dated 2016).

For test [1], the system named is human brain tumor cells Daoy. Briefly: MTT growth inhibition, Daoy cells. Format: cell-based. The note with it: Homo sapiens, 72 h after treatment, read-out: Drug concentration (IC50) at which 50% cancer cells survived. The text has this: (§1) Cell lines and cell culture: human lung cancer cells A549 and H460, human breast cancer cells MCF-7 and MDA-MB-231, human gastric cancer cells BGC-823, human prostate cancer cells PC-3, human chronic leukemia cells K562, human lymphoma cells U937, human liver cancer cells SMMC7721 and HepG2, human colon cancer cells HT29, human pancreatic cancer cells PANC-1 and BxPC3, human cervical cancer Hela cell lines, human brain tumor cells Daoy, human neuroma cells D54 and human oral epidermoid cancer cells KBV200 line with strong drug resistance, mouse melanoma cells B16, and highly metastatic Lewis lung cancer cell lines were purchased from American Type Culture Collection of the U.S. These cells were cultured with DMEM and RPMI-1640 culture solutions separately.
(§2) The procedure was as follows:
(§3) (1) 0.25% trypsin was used to digest cancer cells in a logarithmic growth phase to prepare a single-cell suspension, the concentration of cells was adjusted to 5×10^4/mL, and the adjusted suspension was inoculated into a 96-well culture plate with 100 μl per well;
(§4) (2) The culture plate was transferred into a 37° C. incubator with a saturated humidity and 5% of CO2 and cultured for 24 h; the compounds and the intermediates thereof obtained in embodiments 1-7 and the compound as represented by formula (IIIa) or the positive control anti-cancer drug with the concentration of 1-1000 μM/L were added to enable the final concentration to be 0.1-1500 μM/L. Control wells (only added with 200 μl of cell suspension) and drug-free blank control wells (containing the solvent of 0.01% DMSO) were set, each group included 8 wells, and the plate was placed into the 37° C. incubator with saturated humidity and 5% of CO2 for culturing;
(§5) (3) The 96-well plate was taken out at 48 h and 72 h after dosing, the original culture medium was carefully removed by suction, 100 μl of serum-free DMEM culture medium and 10 μl of MTT (5 mg/mL) solution were added in each well. The plate was continuously cultured for another 4 h and then the culture was terminated;
(§6) (4) The supernatant in the wells was carefully removed by suction, each well was added with 150 μl of DMSO and shaked at room temperature for 10-15 min to fully dissolve crystals.
(§7) (5) Colorimetric analysis: the wavelength was selected as 570 nm, the light absorbance (A value) of each well was determined on the microplate reader and the results were recorded; the experiment was repeated for three times;
(§8) (6) the experimental results were calculated according to the following formula: relative survival rate=(A value of each experimental group/A value of cell control group)×100%
(§9) Calculation of median-effect concentration (IC50, namely the drug concentration at which the inhibition rate is 50%, also known as half inhibitory concentration):
(§10) IC50 of the detected component was calculated by using a regression equation.

Test [2] concerns human gastric cancer cells BGC-823. In words: MTT growth inhibition, BGC-823 cells. Format: cell-based. Particulars: 72 h after treatment, read-out: Drug concentration (IC50) at which 50% cancer cells survived.
Excerpt: as §1, §2, §3, §4, §5, §6, §7, §8, §9, §10

Test [3] relates to human pancreatic cancer cells BxPC3. In words: MTT growth inhibition, BxPc3 cells. Format: cell-based. The note with it: Homo sapiens, BXPC-3, 72 h after treatment, read-out: Drug concentration (IC50) at which 50% cancer cells survived.
Excerpt: as §1, §2, §3, §4, §5, §6, §7, §8, §9, §10

The subject of test [4] is human lung cancer cells A549. In words: MTT growth inhibition, A549 cells. Format: cell-based. The note with it: 72 h after treatment, read-out: Drug concentration (IC50) at which 50% cancer cells survived.
Excerpt: as §1, §2, §3, §4, §5, §6, §7, §8, §9, §10

Test [5] has as its system human colon cancer cells HT29. Briefly: MTT growth inhibition, HT29 cells. It counts as cell-based. Particulars: HT-29, 72 h after treatment, read-out: Drug concentration (IC50) at which 50% cancer cells survived.
Excerpt: as §1, §2, §3, §4, §5, §6, §7, §8, §9, §10

For test [6], the system named is human oral epidermoid cancer cells KBV200. In words: MTT growth inhibition, KBV200 cells. Format: cell-based. The note with it: 72 h after treatment, read-out: Drug concentration (IC50) at which 50% cancer cells survived.
Excerpt: as §1, §2, §3, §4, §5, §6, §7, §8, §9, §10

The subject of test [7] is human breast cancer cells MDA-MB-231. Briefly: MTT growth inhibition, MDA-MB-231 cells. Format: cell-based. Particulars: 72 h after treatment, read-out: Drug concentration (IC50) at which 50% cancer cells survived.
Excerpt: as §1, §2, §3, §4, §5, §6, §7, §8, §9, §10

In test [8] the test system is Caski human cervical cancer cells. In words: MTT growth inhibition, Caski cells. Format: cell-based. Particulars: Ca-Ski, 72 h after treatment, read-out: Drug concentration (IC50) at which 50% cancer cells survived.
For test [9], the system named is human liver cancer cells HepG2. Briefly: MTT growth inhibition, HepG2 cells. It counts as cell-based. Particulars: 72 h after treatment, read-out: Drug concentration (IC50) at which 50% cancer cells survived.
Excerpt: as §1, §2, §3, §4, §5, §6, §7, §8, §9, §10

Test [10] has as its system human pancreatic cancer cells PANC-1. Briefly: MTT growth inhibition, PANC-1 cells. Particulars: 72 h after treatment, read-out: Drug concentration (IC50) at which 50% cancer cells survived. It counts as cell-based.
Excerpt: as §1, §2, §3, §4, §5, §6, §7, §8, §9, §10

Test [11] relates to human liver cancer cells SMMC7721. Briefly: MTT growth inhibition, SMMC7721 cells. The note with it: SMMC-7721, S-7721 (SMMC7721), 72 h after treatment, read-out: Drug concentration (IC50) at which 50% cancer cells survived. Format: cell-based.
Excerpt: as §1, §2, §3, §4, §5, §6, §7, §8, §9, §10

Test [12] concerns human lymphoma cells U937. In words: MTT growth inhibition, U937 cells. It counts as cell-based. The note with it: Homo sapiens, U-937, 72 h after treatment, read-out: Drug concentration (IC50) at which 50% cancer cells survived. The procedure:
as §2, §5, §6, §7, §8, §10

The test system of test [13] is human breast cancer cells MCF-7. Briefly: MTT growth inhibition, MCF-7 cells. It counts as cell-based. The note with it: MCF7, 72 h after treatment, read-out: Drug concentration (IC50) at which 50% cancer cells survived.
Excerpt: as §1, §2, §3, §4, §5, §6, §7, §8, §9, §10

In test [14] the test system is human chronic leukemia cells K562. Briefly: MTT growth inhibition, K562 cells. Format: cell-based. The note with it: 72 h after treatment, read-out: Drug concentration (IC50) at which 50% cancer cells survived.
Excerpt: as §1, §2, §3, §4, §5, §6, §7, §8, §9, §10

For test [15], the system named is human cervical cancer Hela cell lines. Briefly: MTT growth inhibition, Hela cells. It counts as cell-based. The note with it: Homo sapiens, 72 h after treatment, read-out: Drug concentration (IC50) at which 50% cancer cells survived.
Excerpt: as §1, §2, §3, §4, §5, §6, §7, §8, §9, §10

Test [16] deals with human prostate cancer cells PC-3. In words: MTT growth inhibition, PC-3 cells. Format: cell-based. Particulars: 72 h after treatment, read-out: Drug concentration (IC50) at which 50% cancer cells survived.
Excerpt: as §1, §2, §3, §4, §5, §6, §7, §8, §9, §10

A further test relates to mouse melanoma cells B16. In words: MTT growth inhibition, B16 cells. Format: cell-based. The note with it: Mus musculus, 72 h after treatment, read-out: Drug concentration (IC50) at which 50% cancer cells survived.
Excerpt: as §1, §2, §3, §4, §5, §6, §7, §8, §9, §10

In test [17] the test system is highly metastatic Lewis lung cancer cell lines. Briefly: MTT growth inhibition, LLC cells. Format: cell-based, mouse. Particulars: Mus musculus, Lewis lung carcinoma, 72 h after treatment, read-out: Drug concentration (IC50) at which 50% cancer cells survived.
Excerpt: as §1, §2, §3, §4, §5, §6, §7, §8, §9, §10

The test system of another test is human neuroma cells D54. Briefly: MTT growth inhibition, D54 cells. Format: cell-based. The note with it: Homo sapiens, 72 h after treatment, read-out: Drug concentration (IC50) at which 50% cancer cells survived.
Excerpt: as §1, §2, §3, §4, §5, §6, §7, §8, §9, §10

Test [18] has as its system human lung cancer cells H460. Briefly: MTT growth inhibition, H460 cells. It counts as cell-based. The note with it: NCI-H460, 72 h after treatment, read-out: Drug concentration (IC50) at which 50% cancer cells survived.
Excerpt: as §1, §2, §3, §4, §5, §6, §7, §8, §9, §10

Take `O=C(O)c1cc2ccccc2oc1=O` [Compound IIIa]: the IC50 in [1], in [2], in test [3], in [4], in test [5] and in [6] was > 700 µM each time. Moreover, the IC50 in test [7] was > 700 µM; in test [8], > 700 µM; in test [9] it was > 700 µM; in [10], > 700 µM; in test [11], > 500 µM; in [12], > 700 µM. In addition, the IC50 was > 700 µM in test [13]; > 700 µM in [14]; > 700 µM in test [15]; > 500 µM in [16]; > 700 µM in the test on mouse melanoma cells B16; > 700 µM in [17]. Moreover, the IC50 (in the test on human neuroma cells D54; in [18]) was > 700 µM throughout.
On to `O=C(O)c1cc2cc(F)ccc2oc1=O` [Compound IIIe, 6-fluorocoumarin-3-carboxylic acid], for which the IC50 in test [1] is 500 µM; in test [2], 700 µM; in test [3], 500 µM; in test [4], 450 µM; in [5], 570 µM; in [6], 300 µM. The IC50 in test [7] amounted to 520 µM; in test [8], 380 µM; in test [9], 400 µM; in [10] it was 480 µM; in test [11] it was 490 µM; in test [12] it was 560 µM. Besides, the IC50 in [13] was 390 µM; in test [14], 300 µM; in test [15], 600 µM; in [16], 520 µM; in the test with mouse melanoma cells B16, 600 µM; in test [17] it was 380 µM. Further, the IC50 worked out at 300 µM in the test with human neuroma cells D54 and 450 µM in test [18].
On to `O=C(O)c1cc2cc([N+](=O)[O-])ccc2oc1=O` [Compound IIIf, 6-nitrocoumarin-3-carboxylic acid], for which the IC50 is 400 µM in [1]; 650 µM in test [2]; 114 µM in test [3]; 580 µM in [4]; 460 µM in [5]; 300 µM in test [6]. Further, the IC50 in [7] came to 470 µM; in [8], 300 µM; in test [9], 360 µM; in test [10], 430 µM; in [11], 460 µM; in test [12], 450 µM. Also, the IC50 is 400 µM in [13]; 300 µM in [14]; 580 µM in test [15]; 530 µM in test [16]; 670 µM with mouse melanoma cells B16; 370 µM in test [17]. Besides, the IC50 in the test with human neuroma cells D54 was 300 µM; in test [18], 460 µM.
For `O=C(O)c1cc2cc(Br)cc(Br)c2oc1=O` [Compound IIIh, 6,8-dibromo-coumarin-3-carboxylic acid], the IC50 was 350 µM in [1]; 480 µM in test [2]; 400 µM in [3]; 450 µM in test [4]; 590 µM in test [5]; 300 µM in test [6]. In addition, the IC50 in test [7] worked out at 420 µM; in [8] it was 135 µM; in test [9], 145 µM; in test [10], 480 µM; in test [11], 530 µM; in test [12], 390 µM. Also, the IC50 in test [13] is 450 µM; in test [14], 480 µM; in test [15] it was 290 µM; in test [16], 410 µM; in the test with mouse melanoma cells B16, 460 µM; in test [17], 350 µM. In addition, the IC50 in the test with human neuroma cells D54 was determined as 300 µM; in test [18], 550 µM.
